Earlier results on eight molecules are cited in publication PMC9660540 (Clinical Cancer Research, 2022).

Where two headings read alike, the source gives them in different places.

One series has as its system mCRPC. The note with it: cited from earlier work; for OS benefit: phase III clinical trials, ref [35–37].
The subject of series [1] is renal cell carcinoma (RCC). The note with it: pretreated patients with RCC; ref [43]; cited from earlier work.
For series [2] the following is noted: cited from earlier work.
The next series deals with advanced NSCLC. The note with it: in combination with carboplatin, pemetrexed, and pembrolizumab; of 6 evaluable patients; ref [47]; cited from earlier work.
The conditions of series [3]: phase I trials; ref [45]; cited from earlier work.

For the molecule `Cc1ccc(-c2nc(N)nc3c2nnn3Cc2cccc(CO[C@H]3CCOC3)n2)o1` [ciforadenant], the “Patients with tumor regression” value in the series on mCRPC (mCRPC, with or without atezolizumab, of 33 patients, ref [46]) was 5 patients. Also, in series [1], the “Patients with a PR” value was 3%. Moreover, the “Most common treatment-related AEs” value in series [2] (ref [42, 43]) is “fatigue, nausea, and pruritus”.

On to `Cc1c(C#N)cccc1-c1cc(-c2cn(Cc3cccc(C(C)(C)O)n3)nn2)nc(N)n1` [AB928], for which the “Patients with a PR” value with advanced NSCLC is on record as 3 patients.

As to `Nc1nc(-n2cccn2)nc(-n2cccn2)c1Br` [NIR178], the “Grade ≥3 treatment-related AEs” value in series [2] (monotherapy, at the highest doses (480 and 640 mg), ref [42, 44]) is “nausea, increased AST, ALT, and lipase levels, and pneumonitis”.

As for “durvalumab: human immunoglobulin G1 monoclonal antibody that inhibits binding of PD-L1 to PD-1 and CD80”, in series [2] (durvalumab monotherapy, PACIFIC study, ref [33]), the “Grade 3−4 treatment-related events” value is reported as 11.8%.

Regarding `C[S@+]([O-])CCOc1cc(N2CCN(CCn3c(=O)sc4c3nc(N)n3nc(-c5ccco5)nc43)CC2)c(F)cc1F` [EOS100850], the “Grade ≥3 treatment-related AEs” value in series [2] (up to doses of 160 mg twice daily, ref [42, 45]) is on record as “no grade ≥3 treatment-related AEs”. Further, the “Best response of SD” value in series [3] is 6 patients.

With `CO[C@H]1C(=O)[C@]2(C)[C@@H](OC)C[C@H]3OC[C@@]3(OC(C)=O)[C@H]2[C@H](OC(=O)c2ccccc2)[C@]2(O)C[C@H](OC(=O)[C@H](O)[C@@H](NC(=O)OC(C)(C)C)c3ccccc3)C(C)=C1C2(C)C` [cabazitaxel], in the series with mCRPC (later-line mCRPC, ref [48]), the “Median PFS” value was 3.9 months.

In the case of atezolizumab: anti–PD-L1 antibody, the OS benefit entry with mCRPC (mCRPC) is “failed to demonstrate an OS benefit”.

On to ipilimumab: anti–CTLA-4 antibody, for which the OS benefit result with mCRPC (mCRPC) is “failed to demonstrate an OS benefit”.
